Data from publication PMC4467398, “Preclinical antitumor activity of ST7612AA1: a new oral thiol-based histone deacetylase (HDAC) inhibitor” (Oncotarget, 2014).

System: DOHH2 and TMD8 DLBCL cells
Experiment: Gene expression profiling (HumanHT-12 v4 BeadChip, limma), ST7612AA1 300 nM 8 hrs vs DMSO
Type: cell-based, human
Details: 300 nM 8 hrs vs DMSO

`CC(=O)SCCCCC[C@H](NC(=O)[C@H]1CCC(=O)N1)C(=O)Nc1ccccc1` [ST7612AA1] was tested, and the “log ratio ATP6V0C (probe ILMN_1773849)” value was 8.22E-01, the “log ratio ATP6V1G2 (probe ILMN_1654541)” value was 8.47E-01 and the “log ratio ATP6V1H (ILMN_2403730)” value was 6.35E-01. For the same compound, the “log ratio ATP7B (probe ILMN_1722056)” value was 8.88E-01, the “log ratio AVEN (ILMN_1710216)” value was -1.49E+00 and the “log ratio AVPI1 (probe ILMN_1671731)” value was 8.94E-01. For the same compound, the “log ratio AZI1 (probe ILMN_1746206)” value was 7.59E-01, the “log ratio BAG2 (ILMN_3244893)” value was -9.02E-01 and the “log ratio BCCIP (ILMN_1771966)” value was -9.03E-01. The “log ratio BCLAF1 (ILMN_1775192)” value was -8.85E-01, the “log ratio BCLAF1 (ILMN_2357272)” value was -8.42E-01 and the “log ratio BEND3 (ILMN_2375032)” value was -9.71E-01. For the same compound, the “log ratio BHLHB2 (ILMN_1768534)” value was -5.96E-01, the “log ratio BID (ILMN_1763386)” value was -1.18E+00 and the “log ratio BID (ILMN_2372413)” value was -8.80E-01. The “log ratio BIK (probe ILMN_1770505)” value was 7.57E-01, the “log ratio BLK (ILMN_1668277)” value was -8.77E-01 and the “log ratio BLVRB (probe ILMN_1797793)” value was 8.74E-01. For the same compound, the “log ratio BMF (ILMN_1695354)” value was 6.49E-01, the “log ratio BNIP3L (probe ILMN_1718961)” value was 8.34E-01 and the “log ratio BPHL (probe ILMN_1657746)” value was 8.91E-01. For the same compound, the “log ratio BRIX1 (ILMN_1679800)” value was -1.03E+00, the “log ratio BRIX1 (ILMN_2155172)” value was -1.19E+00 and the “log ratio BRPF3 (ILMN_1658800)” value was -7.82E-01. The “log ratio C3orf34 (probe ILMN_1665217)” value was 6.96E-01, the “log ratio C4orf32 (probe ILMN_1700257)” value was 8.83E-01 and the “log ratio C7orf47 (ILMN_1741475)” value was 6.62E-01. For the same compound, the “log ratio C7orf55 (ILMN_3238680)” value was -1.06E+00, the “log ratio C8orf13 (ILMN_1687213)” value was 6.60E-01 and the “log ratio C8orf33 (ILMN_2098325)” value was -8.34E-01. The “log ratio C9orf45 (ILMN_1719998)” value was 6.75E-01, the “log ratio C10orf32 (ILMN_2151056)” value was -8.22E-01 and the “log ratio C12orf24 (ILMN_2180371)” value was -1.09E+00. The “log ratio C12orf52 (probe ILMN_1667857)” value was 6.98E-01, the “log ratio C13orf15 (probe ILMN_1658494)” value was 7.74E-01 and the “log ratio C13orf25 (ILMN_1660754)” value was -8.20E-01. For the same compound, the “log ratio C14orf4 (ILMN_1804396)” value was 6.53E-01, the “log ratio C14orf173 (probe ILMN_2393450)” value was 7.70E-01 and the “log ratio C14orf179 (probe ILMN_1756877)” value was 7.81E-01. The “log ratio C16orf57 (ILMN_1765880)” value was 6.49E-01, the “log ratio C17orf58 (ILMN_1712985)” value was 6.08E-01 and the “log ratio C17orf58 (ILMN_2398926)” value was 6.52E-01. For the same compound, the “log ratio C18orf45 (ILMN_1690442)” value was 6.69E-01, the “log ratio C18orf55 (ILMN_1748916)” value was -8.33E-01 and the “log ratio C19orf2 (ILMN_2406892)” value was -6.10E-01. For the same compound, the “log ratio C20orf108 (ILMN_1708016)” value was 6.16E-01, the “log ratio C20orf177 (ILMN_1718712)” value was -9.03E-01 and the “log ratio CA2 (probe ILMN_2199439)” value was 7.93E-01. For the same compound, the “log ratio CABLES1 (ILMN_1653001)” value was -5.93E-01, the “log ratio CALM1 (ILMN_1778242)” value was 6.20E-01 and the “log ratio CAMLG (probe ILMN_1714599)” value was 7.30E-01. For the same compound, the “log ratio CARHSP1 (ILMN_1809477)” value was 5.98E-01, the “log ratio CASC1 (ILMN_1708983)” value was 6.58E-01 and the “log ratio CASC4 (probe ILMN_2325574)” value was 6.85E-01. The “log ratio CBX7 (probe ILMN_1657361)” value was 7.49E-01, the “log ratio CCDC6 (ILMN_1745904)” value was 6.24E-01 and the “log ratio CCDC16 (ILMN_2154603)” value was -8.59E-01. The “log ratio CCDC24 (probe ILMN_1718771)” value was 6.89E-01, the “log ratio CCDC43 (ILMN_1743783)” value was -5.96E-01 and the “log ratio CCDC58 (ILMN_1686920)” value was -1.25E+00. The “log ratio CCDC59 (ILMN_1662318)” value was -8.48E-01, the “log ratio CCDC86 (ILMN_1792681)” value was -9.35E-01 and the “log ratio CCDC92 (probe ILMN_1731107)” value was 8.05E-01. The “log ratio CCDC128 (ILMN_1667356)” value was 6.21E-01, the “log ratio CCNYL1 (ILMN_1810069)” value was 6.58E-01 and the “log ratio CCNYL1 (ILMN_2166524)” value was 6.44E-01. For the same compound, the “log ratio CCR7 (ILMN_1715131)” value was 6.79E-01, the “log ratio CD58 (ILMN_1785268)” value was -9.16E-01 and the “log ratio CD58 (ILMN_2147517)” value was -9.82E-01. For the same compound, the “log ratio CD74 (ILMN_1736567)” value was 6.75E-01, the “log ratio CD74 (probe ILMN_1761464)” value was 8.47E-01 and the “log ratio CD74 (probe ILMN_2379644)” value was 7.27E-01. The “log ratio CDC2L6 (probe ILMN_1676891)” value was 6.96E-01, the “log ratio CDC25A (ILMN_1711005)” value was -8.24E-01 and the “log ratio CDC42EP5 (probe ILMN_1774982)” value was 8.75E-01. For the same compound, the “log ratio CDK2AP2 (probe ILMN_1690653)” value was 8.01E-01, the “log ratio CDK4 (ILMN_1689001)” value was -8.13E-01 and the “log ratio CECR1 (probe ILMN_1751851)” value was 8.43E-01. For the same compound, the “log ratio CEP70 (ILMN_1741350)” value was 6.16E-01, the “log ratio CERK (ILMN_1767475)” value was 6.70E-01 and the “log ratio CHCHD4 (ILMN_1813938)” value was -1.36E+00. The “log ratio CHD7 (ILMN_1677376)” value was 6.71E-01, the “log ratio CHRAC1 (ILMN_1722390)” value was -6.19E-01 and the “log ratio CHSY1 (ILMN_1791576)” value was 6.80E-01. For the same compound, the “log ratio CLCC1 (probe ILMN_1671933)” value was 8.48E-01, the “log ratio CLECL1 (ILMN_1782729)” value was -1.24E+00 and the “log ratio CLIC4 (probe ILMN_2063586)” value was 7.49E-01. The “log ratio CLIP2 (ILMN_2352190)” value was 6.09E-01, the “log ratio CMIP (ILMN_1738075)” value was 6.47E-01 and the “log ratio CMTM8 (probe ILMN_1710124)” value was 7.00E-01. For the same compound, the “log ratio CNFN (ILMN_1803838)” value was 6.20E-01, the “log ratio CNIH2 (ILMN_1698733)” value was 6.32E-01 and the “log ratio COCH (ILMN_1711514)” value was -6.14E-01. The “log ratio COIL (ILMN_1688034)” value was -9.94E-01, the “log ratio COTL1 (probe ILMN_1788283)” value was 6.87E-01 and the “log ratio CPOX (ILMN_3240389)” value was 6.04E-01. For the same compound, the “log ratio CRIP1 (probe ILMN_1656920)” value was 8.56E-01, the “log ratio CRYM (probe ILMN_1779241)” value was 8.32E-01 and the “log ratio CSRP1 (probe ILMN_1811921)” value was 7.01E-01. For the same compound, the “log ratio CSTB (probe ILMN_1761797)” value was 8.06E-01, the “log ratio CTPS (ILMN_1783285)” value was -1.21E+00 and the “log ratio CTSB (probe ILMN_2359742)” value was 8.56E-01. The “log ratio CUEDC1 (ILMN_1676665)” value was 5.93E-01, the “log ratio CUL1 (ILMN_1749629)” value was -1.05E+00 and the “log ratio CXADR (probe ILMN_1796925)” value was 8.18E-01. The “log ratio CXCL16 (ILMN_1728478)” value was 6.11E-01, the “log ratio CXorf26 (ILMN_1768176)” value was -1.34E+00 and the “log ratio CXorf57 (probe ILMN_1703279)” value was 8.25E-01. For the same compound, the “log ratio CYB5R1 (probe ILMN_1729237)” value was 7.59E-01, the “log ratio CYB5R3 (probe ILMN_1740441)” value was 7.06E-01 and the “log ratio CYP2R1 (probe ILMN_2119774)” value was 7.88E-01. For the same compound, the “log ratio DAD1 (ILMN_1731619)” value was 6.40E-01, the “log ratio DCTD (ILMN_1802456)” value was -1.08E+00 and the “log ratio DCTN6 (ILMN_1744059)” value was -8.19E-01. For the same compound, the “log ratio DCXR (ILMN_1681437)” value was 6.03E-01, the “log ratio DDN (ILMN_1673450)” value was -6.03E-01 and the “log ratio DDX21 (ILMN_1735461)” value was -9.88E-01. For the same compound, the “log ratio DEF8 (probe ILMN_1767509)” value was 8.37E-01, the “log ratio DGCR6L (probe ILMN_3245688)” value was 7.47E-01 and the “log ratio DGKQ (ILMN_1793017)” value was 6.08E-01. For the same compound, the “log ratio DHRS2 (ILMN_1725726)” value was 6.46E-01, the “log ratio DIS3L (ILMN_1795822)” value was -1.05E+00 and the “log ratio DKC1 (ILMN_1671257)” value was -1.02E+00. The “log ratio DNLZ (ILMN_2112049)” value was -1.09E+00, the “log ratio DNMT3B (probe ILMN_1794692)” value was 8.14E-01 and the “log ratio DOK4 (ILMN_1774261)” value was 6.37E-01. For the same compound, the “log ratio DPF1 (ILMN_1769961)” value was 6.38E-01, the “log ratio DPH2 (ILMN_2375418)” value was -1.21E+00 and the “log ratio DSTN (probe ILMN_1706426)” value was 7.52E-01. For the same compound, the “log ratio DTX1 (ILMN_1689002)” value was -5.96E-01, the “log ratio DUS3L (ILMN_1723235)” value was -1.36E+00 and the “log ratio DYNC1H1 (probe ILMN_1780302)” value was 6.97E-01. The “log ratio DYNLL2 (probe ILMN_1772796)” value was 8.61E-01, the “log ratio DYRK1A (ILMN_2374293)” value was -5.97E-01 and the “log ratio DYRK3 (probe ILMN_2400322)” value was 6.97E-01. For the same compound, the “log ratio DYRK3 (probe ILMN_2400326)” value was 8.26E-01, the “log ratio EARS2 (ILMN_1758750)” value was -5.91E-01 and the “log ratio EBI2 (ILMN_1798706)” value was -8.22E-01. The “log ratio EBI2 (ILMN_2168217)” value was -9.10E-01, the “log ratio ECHS1 (probe ILMN_1718132)” value was 7.78E-01 and the “log ratio EEF1B2 (ILMN_1685678)” value was -8.07E-01. For the same compound, the “log ratio EEF1E1 (ILMN_1725105)” value was -8.38E-01, the “log ratio EGR1 (probe ILMN_1762899)” value was 8.42E-01 and the “log ratio ELOF1 (probe ILMN_1723185)” value was 7.14E-01. The “log ratio EMG1 (ILMN_1797074)” value was -1.12E+00, the “log ratio ENC1 (probe ILMN_1779147)” value was 7.93E-01 and the “log ratio ENO2 (probe ILMN_1765796)” value was 7.11E-01. For the same compound, the “log ratio EPB41L5 (ILMN_1770245)” value was 6.78E-01, the “log ratio EPN1 (ILMN_1772981)” value was 6.50E-01 and the “log ratio ERRFI1 (probe ILMN_1665510)” value was 7.44E-01.
